One test concerns HT29 cells. Nature of the test: Inhibition of HT29 colon adenocarcinoma cell growth/proliferation. In kind it is cell-based, human. The settings on record: for Rank order, inhibition of HT-29 tumor cell proliferation: 1 = greatest inhibition, 5 = least inhibition. As for the experimental part: (§1) We examined the effect of several of the terpenes on certain types of cell growth. […] Additionally, growth of HT29 (human colon adenocarcinoma) cells was inhibited by 80% by 1 mM perillyl alcohol.

The next test deals with rat mammary carcinoma. Nature of the test: Comparison of dietary perillyl alcohol and perillic acid methyl ester as inducers of rat mammary carcinoma regression. In kind it is in vivo, Wistar-Furth rat. The note with it: 0.5% PAME diet. As for the experimental part: Inbred female Wistar-Furth rats were given 50 mg/kg DMBA at 50-55 days of age. Upon development of a mammary tumor with the largest diameter≥10 mm, the rat was assigned to 0.5% perillic acid methyl ester diet and fed ad libitum. The 0.5% perillic acid methyl ester diet (weight compound/weight ground Teklad rat/mouse 4% meal/chow) was prepared fresh every 7-10 days. Fresh diet was given to rats daily. All rats were weighed and palpated weekly. The study was terminated at 6 weeks after initial diet administration. The following tumor regression data was acquired:
We compared the effects of PAME and POH in terms of their ability to regress rat mammary carcinomas. Table 8 records our comparison. In summary, a 0.5% PAME diet was effective, while a 0.5% POH diet was only 10% effective. Diets of 2% POH were roughly 64-70% effective. While 2% POH is tolerated by a mammal, on a practical level PAME is preferred because a lower dose is sufficient.

Another test relates to DMBA rat mammary tumor. The test can be described thus: Dietary perillic acid methyl ester-induced rat mammary tumor regression. In kind it is in vivo, Wistar-Furth rat. The settings on record: 0.5% perillic acid methyl ester diet, individual rat tumors. As for the experimental part:
Inbred female Wistar-Furth rats were given 50 mg/kg DMBA at 50-55 days of age. Upon development of a mammary tumor with the largest diameter≥10 mm, the rat was assigned to 0.5% perillic acid methyl ester diet and fed ad libitum. The 0.5% perillic acid methyl ester diet (weight compound/weight ground Teklad rat/mouse 4% meal/chow) was prepared fresh every 7-10 days. Fresh diet was given to rats daily. All rats were weighed and palpated weekly. The study was terminated at 6 weeks after initial diet administration.

Test [1] has as its system 21-26 kDa proteins. Nature of the test: Protein isoprenylation inhibition in NIH3T3 cells (SDS-PAGE fluorography). In kind it is cell-based, mouse. The note with it: all cell types examined. As for the experimental part: "Isoprenylation" is the addition of a multiple of the 5 carbon isoprene unit to a protein. Our experiments in isoprenylation are reported at Crowell, et al. 1991, J. Biol. Chem. 266:17679-17685. To test whether a specific monoterpene affects isoprenylation of proteins in cells, […] were incubated with a radioactive isoprene precursor and 0-5 mM of the test monoterpene and then subjected to SDS-PAGE. Because they carried a radioactive label, isoprenylated proteins were visualized by fluorography. As a control, cells were incubated without the monoterpene.
Cells were harvested after trypsin treatment, washed twice with phosphate-buffered saline, suspended in electrophoresis sample buffer (Laemmli, U.K., 1970, Nature 227:680-685), and either analyzed immediately or stored at -20° C. Whole cell extracts were analyzed by SDS-PAGE on 16-cm×18-cm×0.75-mm gels by the method of Laemmli (supra). The acrylamide concentrations were 5% for the stacking gel and 12% for the separating gel. Gels were stained with Coomassie Brilliant Blue, equilibrated for 20 min in Amplify (Amersham Corp.) fluorographic reagent, dried under vacuum at 65° C., and exposed to preflashed Kodak X-Omat AR film as described by Laskey and Mills (1975, Eur. J. Biochem, 56:335-341). Some fluorograms were analyzed further by densitometry. Where indicated, gels were sliced, dissolved at 50° C. for 3 hours in 0.5 ml of water+0.5 ml of Solvable (Amersham), and then analyzed by scintillation spectrometry in 10 ml of Atom light (Amersham) mixture. Protein content was measured by the method of Lowry, et al. (1951, J. Biol. Chem. 193:265-275).
FIG. 1 depicts the structures of certain monoterpenes.
The degree of isoprenylation was evaluated by the amount of labeled protein present in the 21-26 kDa range, as evidenced by fluorography.

Test [2] relates to 21-26 kDa proteins. Nature of the test: Protein isoprenylation inhibition in M600B human mammary epithelial cells. The settings on record: 5 mM.
Experimental: To test whether a specific monoterpene affects isoprenylation of proteins in cells, cell extracts were incubated with a radioactive isoprene precursor and 0-5 mM of the test monoterpene and then subjected to SDS-PAGE. Because they carried a radioactive label, isoprenylated proteins were visualized by fluorography. As a control, cells were incubated without the monoterpene.
For both isoprenylation and cell growth assays, the monoterpenes were mixed with prewarmed (37° C.) medium containing 10% calf serum, and then the monoterpene-containing medium was added to cells. The relative effects of various monoterpenes on protein isoprenylation were compared by comparison of the relative intensity of bands on fluorograms from [^14 C]-mevalonate-labelled cells treated with each monoterpene.
Samples from each cell line were then analyzed on the same gel.
In the next test the test system is NIH3T3 cells. The test can be described thus: NIH3T3 cell growth inhibition (FIG. 3). In kind it is cell-based, mouse. The note with it: NIH3T3 (murine) cells. As for the experimental part:
(§2) NIH3T3 (mouse embryo) cells were obtained from the American Type Culture Collection and were grown in Dulbecco's modified Eagle's medium supplemented with 10% calf serum. M600B immortalized human mammary epithelial cells (Stampfer, M.R., 1985, J. Tissue Culture Methods 9:107-115) were, obtained from Dr. Martha Stampfer and were grown in supplemented HCDB 170 medium (Hammond, et al. (1984) Proc. Natl. Acad. Sci U.S.A. 81:5435-5439), as described previously (Stampfer, et al. (1985) Proc. Natl. Acad. Sci U.S.A. 82:2394-2398; Eldridge, et al. (1989) Cancer Res. 49:4326-4331).
(§3) All cells were maintained in 100-mm dishes at 37° C. in a humidified 5% CO2 atmosphere. Viable cells were distinguished from nonviable cells by counting azure II/methylene blue-stained colonies 10 days after the cells were plated at a density of 100 cells per dish. Trypan blue exclusion was measured by incubating cells for 1 min with one drop of trypan blue per 10 ml of cells. Viable (colorless) and nonviable (blue) cells were then counted on a hemocytometer.
as §1

Another test has as its system M600B cells. Nature of the test: M600B cell growth inhibition (FIG. 4). In kind it is cell-based. The note with it: M600B (human) cells. As for the experimental part:
as §2, §3, §1

[3] abbreviates: 6 weeks, second comparison, listed as PAME.

Results on three molecules are retold here after patent US5470877A, “Uses of perillic acid methyl ester” (Wisconsin Alumni Research Foundation, priority 1994, dated 1995).

SMILES strings stand for the structures. “And” between values parts separate entries of the source, which are not always exact repeats. Equal values may be shown once.

On to `C=C(C)C1CC=C(C=O)CC1` (stereo not shown) [Perillylaldehyde, reference compound], for which the “Rank order, inhibition of HT-29 tumor cell proliferation” value (from here on “Rank order, inhibition”) with HT29 cells is reported as 3.

For `C=C(C)C1CC=C(C(=O)OC)CC1` (stereo not shown) [perillic acid methyl ester], the effectiveness of diet entry in the test with rat mammary carcinoma is reported as “effective”. For the same molecule, in the test on rat mammary carcinoma (6 weeks, second comparison), the “no regression (tumors)” value is on record as 10 of 19, the no response is given as 1, the “partial regression >1/2 original diameter (%)” value was found to be 47% and the “partial regression >1/2 original diameter (tumors)” value is 9 of 19. Further, in the test with rat mammary carcinoma (6 weeks, second comparison), the small regression response is listed as 4 of 19 and the “some growth of tumor” value was 5 of 19. Also, in the test with rat mammary carcinoma (setting [3]), the “no regression (tumors)” value was 10/19, the no response is on record as 1/19, the “partial regression >1/2 original diameter (tumors)” value is reported as 9/19 and the small regression response is 4/19. Besides, the “some growth of tumor” value with rat mammary carcinoma (setting [3]) is listed as 5/19. In addition, the “time (of tumor size change)” value in the test with DMBA rat mammary tumor is 6 wks and 5 wks and 4 wks and 3 wks and 2 wks. Also, in the test with HT29 cells, the “potency in cell proliferation tests versus perillyl alcohol” value is on record as “more potent in cell proliferation, tests than perillyl alcohol” and the “Rank order, inhibition” value is 1. In the test on HT29 cells (Homo sapiens, HT-29, read-out: IC50 HT29 tumor cell proliferation), the IC50 amounted to 50 µM.

Regarding `C=C(C)[C@@H]1CC=C(C(=O)O)CC1` [perillic acid], the “inhibition of isoprenylation in all cases examined” value in the test with 21-26 kDa proteins [1] is recorded as “inhibition of isoprenylation”. Further, the “Rank order, inhibition” value with HT29 cells is listed as 4. For the same molecule, in the test with 21-26 kDa proteins [2], the “isoprenylation of 21-26 kDa proteins” value is reported as “inhibited significantly”. Further, the “inhibition of cell growth” value in the test with NIH3T3 cells and with M600B cells was “significantly inhibited cell growth in a dose-dependent manner” each time.
